The record followed here is patent publication US20240376085A1 (Janssen Pharmaceutica NV, priority 2021, published 2024).

In assay [1] the test system is IL-17A-induced G-CSF production in human normal keratinocyte (NHK). In words: NHK assay: IL-17A-induced G-CSF production in normal human keratinocytes. In kind it is cell-based. The following applies: 24 h, IL-17A 5 ng/mL, average if tested more than once. As to the method: IL-17A acts directly on keratinocytes through binding to dimeric receptor IL-17RA/RC and drives the production of a number of inflammatory mediators known to be elevated in psoriasis lesional tissue. IL-17A small molecule inhibitors that block the IL-17A to interact with IL-17R would inhibit the IL-17A signaling in its targeted cells such as keratinocytes. The compound functional activity is evaluated for its impact on IL-17A-induced G-CSF production in human normal keratinocyte (NHK).
Adult normal human keratinocytes are cultured in keratinocyte growth medium (Lonza) in a flask till reaching ˜90% confluence, then cells are transferred to a 384-well plate at density of 3000-4000 cell/well. Recombinant human IL-17A (Gibco PHC9174) is pre-incubated with titrated compound or DMSO for 1 h at rt then added to the cell culture plate. The final concentration of IL-17A is 5 ng/mL and DMSO is 0.2%, in the culture containing 5% FBS. Cells are cultured/treated for 24 h at 37° C. Supernatants are collected and G-CSF production is measured through HTRF technology using Human G-CSF Kit (CisBio). G-CSF concentration was extrapolated from the standard curve and IC50 is determined using GraphPad Prism. Cell viability is also evaluated using CellTiter-Glo kit (Promega) and effect of compound on cell viability is compared to DMSO control.

Assay [2] deals with T1, IL-17A : IL-17RA binding (Homo sapiens, UniProt Q16552, K93Q).
T1 construct: Name: IL-17A-Flag
In words: IL-17A(FLAG-tagged):IL-17RA(His-tagged) binding disruption Eu-HTRF assay, Protocol 1. The following applies: FLAG-IL-17A 2.5 nM at 2x final concentration; average if tested more than once. From the text: An antibody directed against the FLAG tag of IL-17A (SEQ ID NO: 1) is labeled with the HTRF donor chromophore (Europium-cryptate). IL-17A is present as a dimer that is “locked into” this quaternary structure due to the formation of loop-spanning […] disulfide bridges. The construct of IL-17RA used in the assay excludes the […] portion of the receptor and is fused to a C-terminal 10×His tag (SEQ ID NO:2). An antibody directed against the His tag of the IL-17RA chimera is labeled with the HTRF acceptor chromophore (“D2”). The fluorescence-resonance energy transfer (FRET) depends on the vicinity of the donor chromophore to the acceptor, and interruption of the binding between the IL-17A and IL-17RA causes the reduction/loss of FRET. Therefore, this assay allows to evaluate the compound effect on the binding IL-17A and IL-17RA by monitoring the fluorescence intensity of donor vs acceptor. The assay was run using either Protocol 1 or Protocol 2 as described below.
Protocol 1. 40 nl of 2-fold serial diluted compound solution for total 22 dilution points is added into each well of a 1536-well, white, low-volume, non-binding plate (Greiner #782904), then 2 μl of FLAG tagged IL-17A at 2× final concentration (2.5 nM) in solution of PBS+0.01% Triton-X100 is added to each well. The assay plate is briefly centrifuged then incubated for 1 h at rt. A mixed solution is prepared containing 2×5 nM 10HIS×IL-17RA, 2×2.5 nM Eu-anti-FLAG (CISBIO), 2×5 nM D2-anti-HIS (CISBIO) in PBS+0.01% Triton-X100+200 mM Potassium Fluoride (Sigma 60238) and 2 μl of mix is added to each well of the assay plate. The plate is briefly centrifuged then incubated for 2 h at rt. The HTRF intensities at the wavelength of donor (620 nm) and acceptor (665 nm) are measured using BMG Pherastar. The ratio between intensities at two wavelengths is calculated and plotted against the compound concentration and the data is fitted to a one-site competition model to yield IC50 of the compound.
A general note: In TR-FRET formats the signal depends on donor and acceptor labels being close together.

For orientation: IC50 means the concentration that gives 50% inhibition.

T1 sequence (Q16552 with tags, fused parts or gaps K93Q): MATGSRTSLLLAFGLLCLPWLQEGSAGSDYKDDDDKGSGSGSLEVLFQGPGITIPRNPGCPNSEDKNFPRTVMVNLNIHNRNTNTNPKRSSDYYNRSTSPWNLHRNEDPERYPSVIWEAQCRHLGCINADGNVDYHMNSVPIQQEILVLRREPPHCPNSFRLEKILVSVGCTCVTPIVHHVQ

As to `C[C@@H](NC(=O)CCC(F)(F)F)c1ccc2nc([C@@H](NC(=O)c3cnn(CC4CCC4)n3)C3CCC(F)(F)CC3)[nH]c2c1` [Example 62, 2-(Cyclobutylmethyl)-N—((S)-(4,4-difluorocyclohexyl)(6-((R)-1-(4,4,4-trifluorobutanamido)ethyl)-1H-benzo[d]imidazol-2-yl)methyl)-2H-1,2,3-triazole-4-carboxamide], the IC50 was more than 100 nM in assay [1] (Homo sapiens, Keratinocyte) and more than 100 nM in assay [2].
In the case of `CC(CC(=O)N[C@@H](c1ccc2[nH]c([C@H](COC(C)(C)C(F)(F)F)NC(=O)c3nonc3C3CC3)nc2c1)C1CC1)C(F)F` (single isomer, unassigned) [Example 175, 4-Cyclopropyl-N—((R)-1-(5-((R)-cyclopropyl((R*)-4,4-difluoro-3-methylbutanamido)methyl)-1H-benzo[d]imidazol-2-yl)-2-((1,1,1-trifluoro-2-methylpropan-2-yl)oxy)ethyl)-1,2,5-oxadiazole-3-carboxamide], the half-maximal inhibitory concentration (IC50) is more than 100 nM in assay [1] (Homo sapiens, Keratinocyte) and less than 50 nM in assay [2].
For `CCc1nonc1C(=O)N[C@@H](CC(C)(C)C(F)(F)F)c1nc2cc([C@@H](NC(=O)CCC(F)(F)F)C3CC3)ccc2[nH]1` (relative stereo) [Example 189, N—((S*)-1-(5-((S*)-Cyclopropyl(4,4,4-trifluorobutanamido)methyl)-1H-benzo[d]imidazol-2-yl)-4,4,4-trifluoro-3,3-dimethylbutyl)-4-ethyl-1,2,5-oxadiazole-3-carboxamide], in that order: more than 100 nM and more than 100 nM.
As to `C[C@@H](NC(=O)CCC(F)(F)F)c1ccc2[nH]c([C@@H](NC(=O)c3cnn4c3CCC4)C3CCC(F)(F)CC3)nc2c1` [Example 212, N—((S)-(4,4-Difluorocyclohexyl)(5-((R)-1-(4,4,4-trifluorobutanamido)ethyl)-1H-benzo[d]imidazol-2-yl)methyl)-5,6-dihydro-4H-pyrrolo[1,2-b]pyrazole-3-carboxamide], the half-maximal inhibitory concentration (IC50) is more than 100 nM in assay [1] (Homo sapiens, Keratinocyte) and more than 100 nM in assay [2].
Regarding `CCc1nonc1C(=O)NC(CC(C)(C)C(F)(F)F)c1nc2cc([C@@H](C)NC(=O)CCC(F)(F)F)ccc2[nH]1` (single isomer, unassigned) [Example 197, 4-Ethyl-N—((S*)-4,4,4-trifluoro-3,3-dimethyl-1-(5-((R)-1-(4,4,4-trifluorobutanamido)ethyl)-1H-benzo[d]imidazol-2-yl)butyl)-1,2,5-oxadiazole-3-carboxamide], the IC50 was 50 to 100 nM in assay [1] (Homo sapiens, Keratinocyte) and less than 50 nM in assay [2].
On the same counts, the results for `C[C@@H](NC(=O)CCC(F)(F)F)c1ccc2[nH]c([C@@H](NC(=O)c3cncn3CCC(F)(F)F)C3CCC(F)(F)CC3)nc2c1` [Example 216, N—((S)-(4,4-Difluorocyclohexyl)(5-((R)-1-(4,4,4-trifluorobutanamido)ethyl)-1H-benzo[d]imidazol-2-yl)methyl)-1-(3,3,3-trifluoropropyl)-1H-imidazole-5-carboxamide] are more than 100 nM and more than 100 nM.
On to `CC(Cn1nncc1C(=O)N[C@H](c1nc2ccc([C@@H](C)NC(=O)CCC(F)(F)F)cc2[nH]1)C1CCC(F)(F)CC1)C(F)(F)F` (single isomer, unassigned) [Example 72, N—((S)-(4,4-Difluorocyclohexyl)(6-((R)-1-(4,4,4-trifluorobutanamido)ethyl)-1H-benzo[d]imidazol-2-yl)methyl)-1-((S*)-3,3,3-trifluoro-2-methylpropyl)-1H-1,2,3-triazole-5-carboxamide], for which the IC50 in assay [1] and in assay [2] was more than 100 nM each time.
For `C[C@@H](O[C@H](C)C(F)(F)F)[C@H](NC(=O)c1nonc1C1CC1)c1nc2ccc([C@H](NC(=O)C[C@H]3CC3(F)F)C3(C#N)CC3)cc2[nH]1` [Example 269, N-((1R,2R)-1-(6-((S)-(1-Cyanocyclopropyl)(2-((S)-2,2-difluorocyclopropyl)acetamido)methyl)-1H-benzo[d]imidazol-2-yl)-2-(((R)-1,1,1-trifluoropropan-2-yl)oxy)propyl)-4-cyclopropyl-1,2,5-oxadiazole-3-carboxamide], the half-maximal inhibitory concentration (IC50) is less than 50 nM in assay [1] (Homo sapiens, Keratinocyte) and less than 50 nM in assay [2].
For `CC(C(F)F)n1cc(C(=O)N[C@H](c2nc3cc([C@@H](C)NC(=O)CCC(F)(F)F)ccc3[nH]2)C2CCC(F)(F)CC2)nn1` (stereo partly drawn) [Example 85, N—((S)-(4,4-Difluorocyclohexyl)(5-((R)-1-(4,4,4-trifluorobutanamido)ethyl)-1H-benzo[d]imidazol-2-yl)methyl)-1-(1,1-difluoropropan-2-yl)-1H-1,2,3-triazole-4-carboxamide], the half-inhibitory concentration (IC50) in assay [1] (Homo sapiens, Keratinocyte) is more than 100 nM; in assay [2], more than 100 nM.
Regarding `C[C@@H](NC(=O)CCC(F)(F)F)c1ccc2[nH]c([C@@H](NC(=O)c3cnn(C)c3CCC(F)(F)F)C3CCC(F)(F)CC3)nc2c1` [Example 6, N—[(S)-(4,4-Difluorocyclohexyl)-[6-[(1R)-1-(4,4,4-trifluorobutanoylamino)ethyl]-1H-benzimidazol-2-yl]methyl]-1-methyl-5-(3,3,3-trifluoropropyl)pyrazole-4-carboxamide], the concentration for half-maximal inhibition (IC50) is more than 100 nM in assay [1] (Homo sapiens, Keratinocyte) and more than 100 nM in assay [2].
For the compound `C[C@@H](NC(=O)CCC(F)(F)F)c1ccc2[nH]c([C@@H](NC(=O)c3c(C#N)cnn3CC3CCC3)C3CCC(F)(F)CC3)nc2c1` [Example 90, 4-Cyano-1-(cyclobutylmethyl)-N—((S)-(4,4-difluorocyclohexyl)(5-((R)-1-(4,4,4-trifluorobutanamido)ethyl)-1H-benzo[d]imidazol-2-yl)methyl)-1H-pyrazole-5-carboxamide], the IC50 in assay [1] (Homo sapiens, Keratinocyte) is more than 100 nM; in assay [2], more than 100 nM.
Take `CC(C)c1c(C(=O)NC(CC(C)(C)C(F)(F)F)c2nc3cc([C@@H](C)NC(=O)CCC(F)(F)F)ccc3[nH]2)no[n+]1[O-]` (single isomer, unassigned) [Example 56, 3-Isopropyl-4-(((S*)-4,4,4-trifluoro-3,3-dimethyl-1-(5-((R)-1-(4,4,4-trifluorobutanamido)ethyl)-1H-benzo[d]imidazol-2-yl)butyl)carbamoyl)-1,2,5-oxadiazole 2-oxide]: the IC50 in assay [1] (Homo sapiens, Keratinocyte) is 50 to 100 nM; in assay [2], 50 to 100 nM.
Turning to `CCn1nc(C(=O)N[C@H](c2nc3cc([C@@H](C)NC(=O)CCC(F)(F)F)ccc3[nH]2)C2CCC(F)(F)CC2)cc1C(F)(F)F` [Example 92, N—((S)-(4,4-Difluorocyclohexyl)(5-((R)-1-(4,4,4-trifluorobutanamido)ethyl)-1H-benzo[d]imidazol-2-yl)methyl)-1-ethyl-5-(trifluoromethyl)-1H-pyrazole-3-carboxamide], the concentration for half-maximal inhibition (IC50) in assay [1] (Homo sapiens, Keratinocyte) is more than 100 nM; in assay [2] it was more than 100 nM.
`Cc1nonc1C(=O)N[C@@H](CO[C@H](C)C(F)(F)F)c1nc2ccc([C@H](NC(=O)CC3CC(F)(F)C3)C3CC3)cc2[nH]1` (relative stereo) [Example 150, N—((R*)-1-(6-((R)-Cyclopropyl(2-(3,3-difluorocyclobutyl)acetamido)methyl)-1H-benzo[d]imidazol-2-yl)-2-(((R*)-1,1,1-trifluoropropan-2-yl)oxy)ethyl)-4-methyl-1,2,5-oxadiazole-3-carboxamide]: the IC50 in assay [1] (Homo sapiens, Keratinocyte) is more than 100 nM; in assay [2], more than 100 nM.
`C[C@@H](NC(=O)CCC(F)(F)F)c1ccc2[nH]c([C@@H](NC(=O)[C@@H]3C[C@@H]3F)C3CCC(F)(F)CC3)nc2c1` [Example 101, (1S,2S)—N—((S)-(4,4-Difluorocyclohexyl)(5-((R)-1-(4,4,4-trifluorobutanamido)ethyl)-1H-benzo[d]imidazol-2-yl)methyl)-2-fluorocyclopropane-1-carboxamide]: the IC50 was more than 100 nM in assay [1] (Homo sapiens, Keratinocyte) and more than 100 nM in assay [2].
